Laboratory results published in PubChem BioAssay AID248 (DTP/NCI, 2004).
Values joined by “and” are separate entries in the source; they are usually repeats but may differ in a detail not shown here. Equal values may be shown once. Inconclusive results and toxic doses are left out.

Test system: L1210 leukemia ip in BDF1 mice, survival T/C
Assay: NCI In Vivo Anticancer Drug Screen. Data for tumor model L1210 Leukemia (intraperitoneal) in B6D2F1 (BDF1) mice
Conditions: endpoint: mean survival time, higher = longer survival
In short: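 Transplanted-tumor mice were given test agent; controls received vehicle only. Survival readings from the two groups were divided (treated over control).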

[1] = dose: 5.0 mg/kg/injection, schedule: Q01DX001 (ip), vehicle: saline
[2] = dose: 10.0 mg/kg/injection, schedule: Q01DX001 (ip), vehicle: saline
[3] = dose: 20.0 mg/kg/injection, schedule: Q01DX001 (ip), vehicle: saline
[4] = dose: 100.0 mg/kg/injection, schedule: Q01DX009 (ip), vehicle: saline
[5] = dose: 100.0 mg/kg/injection, schedule: Q04DX003 (ip), vehicle: saline
[6] = dose: 200.0 mg/kg/injection, schedule: Q04DX003 (ip), vehicle: saline
[7] = dose: 400.0 mg/kg/injection, schedule: Q04DX003 (ip), vehicle: saline
[8] = dose: 100.0 mg/kg/injection, schedule: Q04DX003 (ip), vehicle: saline with Tween-80
[9] = dose: 200.0 mg/kg/injection, schedule: Q04DX003 (ip), vehicle: saline with Tween-80
[10] = dose: 400.0 mg/kg/injection, schedule: Q04DX003 (ip), vehicle: saline with Tween-80
[11] = dose: 100.0 mg/kg/injection, schedule: Q01DX009 (ip), vehicle: Klucel (hydroxypropylcellulose) (HPC)
[12] = dose: 200.0 mg/kg/injection, schedule: Q01DX009 (ip), vehicle: Klucel (hydroxypropylcellulose) (HPC)
[13] = dose: 400.0 mg/kg/injection, schedule: Q01DX009 (ip), vehicle: Klucel (hydroxypropylcellulose) (HPC)
[14] = dose: 100.0 mg/kg/injection, schedule: Q04DX003 (ip), vehicle: Klucel (hydroxypropylcellulose) (HPC)
[15] = dose: 200.0 mg/kg/injection, schedule: Q04DX003 (ip), vehicle: Klucel (hydroxypropylcellulose) (HPC)
[16] = dose: 400.0 mg/kg/injection, schedule: Q04DX003 (ip), vehicle: Klucel (hydroxypropylcellulose) (HPC)

Structure (SMILES): C[N+](C)(C)CCC[N+]1(C)CC2C3CCCCC3=C3CCCCC3C2C1 (stereo unspecified)
- T/C [1]: 95 % of control
- T/C [2]: 98 % of control
- T/C [3]: 101 % of control

Structure (SMILES): CC(=O)Nc1ccn(CC(=O)c2cccs2)c(=O)n1
- T/C [4]: 96 % of control
- T/C [5]: 95 % of control
- T/C (dose: 200.0 mg/kg/injection, schedule: Q01DX009 (ip), vehicle: saline): 94 % of control
- T/C [6]: 101 % of control
- T/C (dose: 400.0 mg/kg/injection, schedule: Q01DX009 (ip), vehicle: saline): 89 % of control
- T/C [7]: 110 % of control

Structure (SMILES): CC1(C)N=C(N)N=C(N)N1c1ccc(OCC(=O)N2CCOCC2)c(Cl)c1
- T/C (dose: 12.5 mg/kg/injection, schedule: Q01DX009 (ip), vehicle: saline): 98 % of control
- T/C (dose: 25.0 mg/kg/injection, schedule: Q01DX009 (ip), vehicle: saline): 98 % of control
- T/C (dose: 50.0 mg/kg/injection, schedule: Q01DX009 (ip), vehicle: saline): 95 % of control
- T/C [4]: 101 % of control

Structure (SMILES): COc1ccc(OC)c(/C=C/C(=O)n2cnc3c(N)ncnc32)c1
- T/C [8]: 93 % of control
- T/C [9]: 93 % of control
- T/C [10]: 88 % of control

Structure (SMILES): NNc1ccc2ccccc2n1
- T/C (dose: 5.0 mg/kg/injection, schedule: Q01DX009 (ip), vehicle: saline): 95 % of control
- T/C (dose: 5.0 mg/kg/injection, schedule: Q04DX003 (ip), vehicle: saline with Tween-80): 113 % of control
- T/C (dose: 10.0 mg/kg/injection, schedule: Q01DX009 (ip), vehicle: saline): 97 % of control
- T/C (dose: 10.0 mg/kg/injection, schedule: Q04DX003 (ip), vehicle: saline with Tween-80): 101 % of control
- T/C (dose: 20.0 mg/kg/injection, schedule: Q01DX009 (ip), vehicle: saline): 97 % of control
- T/C (dose: 20.0 mg/kg/injection, schedule: Q04DX003 (ip), vehicle: saline with Tween-80): 101 % of control

Structure (SMILES): O=C(Nc1ccc(NC(=O)Nc2cccc(C3=NCCCN3)c2)cc1)Nc1cccc(C2=NCCCN2)c1
- T/C (dose: 6.25 mg/kg/injection, schedule: Q01DX Z (ip), vehicle: carboxymethylcellulose (CMC)): 101 % of control
- T/C (dose: 8.0 mg/kg/injection, schedule: Q01DX Z (oral), vehicle: carboxymethylcellulose (CMC)): 104 % of control
- T/C (dose: 12.5 mg/kg/injection, schedule: Q01DX Z (ip), vehicle: carboxymethylcellulose (CMC)): 102 % of control
- T/C (dose: 16.0 mg/kg/injection, schedule: Q01DX Z (oral), vehicle: carboxymethylcellulose (CMC)): 95 % of control
- T/C (dose: 31.0 mg/kg/injection, schedule: Q01DX Z (oral), vehicle: carboxymethylcellulose (CMC)): 97 % of control
- T/C (dose: 50.0 mg/kg/injection, schedule: Q01DX Z (ip), vehicle: carboxymethylcellulose (CMC)): 157 % of control
- T/C (dose: 62.0 mg/kg/injection, schedule: Q01DX Z (oral), vehicle: carboxymethylcellulose (CMC)): 103 % of control
- T/C (dose: 125.0 mg/kg/injection, schedule: Q01DX Z (oral), vehicle: carboxymethylcellulose (CMC)): 106 % of control
- T/C (dose: 250.0 mg/kg/injection, schedule: Q01DX Z (oral), vehicle: carboxymethylcellulose (CMC)): 105 % of control
- T/C (dose: 500.0 mg/kg/injection, schedule: Q01DX Z (oral), vehicle: carboxymethylcellulose (CMC)): 106 % of control

Structure (SMILES): Nc1ccc(Cc2ccc(N)cc2[N+](=O)[O-])c([N+](=O)[O-])c1
- T/C (dose: 100.0 mg/kg/injection, schedule: Q01DX001 (ip), vehicle: carboxymethylcellulose (CMC)): 98 % of control
- T/C (dose: 200.0 mg/kg/injection, schedule: Q01DX001 (ip), vehicle: carboxymethylcellulose (CMC)): 105 % of control
- T/C (dose: 400.0 mg/kg/injection, schedule: Q01DX001 (ip), vehicle: carboxymethylcellulose (CMC)): 100 % of control

Structure (SMILES): CCN(CC#N)c1ccc(Nc2cc(Cl)ccc2Cl)cc1
- T/C (dose: 75.0 mg/kg/injection, schedule: Q01DX001 (ip), vehicle: other): 107 % of control
- T/C (dose: 150.0 mg/kg/injection, schedule: Q01DX001 (ip), vehicle: other): 96 % of control
- T/C (dose: 300.0 mg/kg/injection, schedule: Q01DX001 (ip), vehicle: other): 100 % of control

Structure (SMILES): CCN(Cc1ccccc1)C(=O)Nc1ccc(OC)cc1
- T/C [11]: 103 % of control
- T/C [12]: 97 % of control
- T/C [13]: 106 % of control

Structure (SMILES): CCC(C)NC(=O)Nc1ccccc1Cl (stereo unspecified)
- T/C [11]: 101 % of control
- T/C [12]: 95 % of control
- T/C [13]: 100 % of control

Structure (SMILES): CCOC1CC2CN(C)C1c1ccccc12 (stereo unspecified)
- T/C [5]: 97 % of control
- T/C [6]: 97 % of control
- T/C [7]: 101 % of control

Structure (SMILES): OC1COC(n2cnc3c(=S)nc[nH]c32)C(O)C1O (stereo unspecified)
- T/C [1]: 98 % of control
- T/C [2]: 102 % of control
- T/C [3]: 98 % of control
- T/C (dose: 40.0 mg/kg/injection, schedule: Q01DX001 (ip), vehicle: saline): 96 % of control
- T/C (dose: 50.0 mg/kg/injection, schedule: Q01DX001 (ip), vehicle: saline): 115 % of control
- T/C (dose: 80.0 mg/kg/injection, schedule: Q01DX001 (ip), vehicle: saline): 98 % of control
- T/C (dose: 100.0 mg/kg/injection, schedule: Q01DX001 (ip), vehicle: saline): 105 % of control and 100 % of control
- T/C (dose: 200.0 mg/kg/injection, schedule: Q01DX001 (ip), vehicle: saline): 111 % of control and 100 % of control and 101 % of control
- T/C (dose: 400.0 mg/kg/injection, schedule: Q01DX001 (ip), vehicle: saline): 101 % of control and 103 % of control

Structure (SMILES): O=C(COc1cc(Cl)c(Cl)cc1Cl)Nc1cccc(O)c1
- T/C [11]: 101 % of control
- T/C [12]: 96 % of control
- T/C [13]: 115 % of control

Structure (SMILES): COc1ccc(NC(=O)N(C)Cc2ccccc2Cl)cc1
- T/C (dose: 100.0 mg/kg/injection, schedule: Q04DX002 (ip), vehicle: Klucel (hydroxypropylcellulose) (HPC)): 96 % of control
- T/C (dose: 200.0 mg/kg/injection, schedule: Q04DX002 (ip), vehicle: Klucel (hydroxypropylcellulose) (HPC)): 110 % of control
- T/C (dose: 400.0 mg/kg/injection, schedule: Q04DX002 (ip), vehicle: Klucel (hydroxypropylcellulose) (HPC)): 104 % of control

Structure (SMILES): CCC1(C)N=C(C)C(C)S1 (stereo unspecified)
- T/C [8]: 111 % of control
- T/C [9]: 100 % of control
- T/C [10]: 100 % of control

Structure (SMILES): COc1cc2ccc3c(c2cc1OC)C(=O)CNC3C (stereo unspecified)
- T/C (dose: 12.5 mg/kg/injection, schedule: Q04DX003 (ip), vehicle: saline): 100 % of control
- T/C (dose: 50.0 mg/kg/injection, schedule: Q04DX003 (ip), vehicle: Klucel (hydroxypropylcellulose) (HPC)): 114 % of control
- T/C [14]: 98 % of control
- T/C [15]: 106 % of control
- T/C [16]: 101 % of control

Structure (SMILES): COc1ccc(CC2C(=O)NC(C)C(=O)N(C)C3C(=O)N(C)C(Cc4ccc(O)c(c4)Oc4ccc(cc4)C3O)C(=O)NC(C)C(=O)NC(C)C(=O)N2C)cc1 (stereo unspecified) (tested in a mixture with another compound)
- T/C (dose: 0.25 mg/kg/injection, schedule: Q01DX009 (ip), vehicle: saline): 112 % of control
- T/C (dose: 0.5 mg/kg/injection, schedule: Q01DX009 (ip), vehicle: carboxymethylcellulose (CMC)): 114 % of control
- T/C (dose: 0.5 mg/kg/injection, schedule: Q01DX009 (ip), vehicle: saline): 122 % of control
- T/C (dose: 1.0 mg/kg/injection, schedule: Q01DX009 (ip), vehicle: carboxymethylcellulose (CMC)): 115 % of control
- T/C (dose: 1.0 mg/kg/injection, schedule: Q01DX009 (ip), vehicle: saline): 120 % of control
- T/C (dose: 2.0 mg/kg/injection, schedule: Q01DX009 (ip), vehicle: carboxymethylcellulose (CMC)): 117 % of control
- T/C (dose: 2.0 mg/kg/injection, schedule: Q01DX009 (ip), vehicle: saline): 117 % of control

Structure (SMILES): CC(=O)OCC1OC(S[As](C)C)C(OC(C)=O)C(OC(C)=O)C1OC(C)=O (stereo unspecified)
- T/C [11]: 101 % of control
- T/C [14]: 101 % of control
- T/C [12]: 103 % of control
- T/C [15]: 100 % of control
- T/C [16]: 100 % of control

Structure (SMILES): COc1ccc2c(c1)c(=O)c(C(=O)O)cn2CCCOc1ccc([N+](=O)[O-])cc1
- T/C [11]: 96 % of control
- T/C [5]: 107 % of control
- T/C [12]: 106 % of control
- T/C [6]: 100 % of control
- T/C [13]: 93 % of control
- T/C [7]: 94 % of control

Structure (SMILES): O=c1ccn(C2CC(O)C(CO)C2)c(=S)[nH]1 (stereo unspecified)
- T/C (dose: 50.0 mg/kg/injection, schedule: Q01DX009 (ip), vehicle: saline with Tween-80): 103 % of control
- T/C (dose: 100.0 mg/kg/injection, schedule: Q01DX009 (ip), vehicle: saline with Tween-80): 107 % of control
- T/C (dose: 200.0 mg/kg/injection, schedule: Q01DX009 (ip), vehicle: saline with Tween-80): 93 % of control
